Laboratory results reported in PubChem BioAssay AID328 (DTP/NCI, 2004).
Several values for one entry are separate records, joined by “and”; a condition that tells them apart may be missing. Equal entries are not always repeated. Toxic doses and inconclusive results are not listed. Rule for the calls: active = survival T/C of 150% or more; inactive = T/C below 125% in these data.

Tested on: BDF1 mice, P388 leukemia ip, median survival T/C
Assay: NCI In Vivo Anticancer Drug Screen. Data for tumor model P388 Leukemia (intraperitoneal) in B6D2F1 (BDF1) mice
Conditions: endpoint: median survival time, higher = longer survival
In short: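 Transplantable tumour in mice; compound vs vehicle dosing; survival scored; ratio of treated to control reported.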

[1] = dose: 100.0 mg/kg/injection, schedule: Q04DX003 (ip), vehicle: Klucel (hydroxypropylcellulose) (HPC)
[2] = dose: 100.0 mg/kg/injection, schedule: Q04DX003 (ip), vehicle: saline with Tween-80
[3] = dose: 200.0 mg/kg/injection, schedule: Q04DX003 (ip), vehicle: saline with Tween-80
[4] = dose: 50.0 mg/kg/injection, schedule: Q01DX009 (ip), vehicle: Klucel (hydroxypropylcellulose) (HPC)
[5] = dose: 50.0 mg/kg/injection, schedule: Q04DX003 (ip), vehicle: Klucel (hydroxypropylcellulose) (HPC)
[6] = dose: 100.0 mg/kg/injection, schedule: Q01DX009 (ip), vehicle: Klucel (hydroxypropylcellulose) (HPC)
[7] = dose: 200.0 mg/kg/injection, schedule: Q01DX009 (ip), vehicle: Klucel (hydroxypropylcellulose) (HPC)
[8] = dose: 200.0 mg/kg/injection, schedule: Q04DX003 (ip), vehicle: Klucel (hydroxypropylcellulose) (HPC)
[9] = dose: 50.0 mg/kg/injection, schedule: Q04DX003 (ip), vehicle: saline
[10] = dose: 100.0 mg/kg/injection, schedule: Q01DX009 (ip), vehicle: saline
[11] = dose: 100.0 mg/kg/injection, schedule: Q04DX003 (ip), vehicle: saline
[12] = dose: 50.0 mg/kg/injection, schedule: Q01DX009 (ip), vehicle: saline
[13] = dose: 200.0 mg/kg/injection, schedule: Q04DX003 (ip), vehicle: saline

Measured: T/C

COc1cc(C(=O)c2cocc2C(=O)c2ccc3c(c2)OCO3)cc(OC)c1OC
active: dose: 100.0 mg/kg/injection, schedule: Q01DX010 (ip), vehicle: other 180 % of control | dose: 200.0 mg/kg/injection, schedule: Q01DX010 (ip), vehicle: other 165 % of control | dose: 200.0 mg/kg/injection, schedule: Q01DX010 (ip), vehicle: water 155 % of control | dose: 400.0 mg/kg/injection, schedule: Q01DX010 (ip), vehicle: other 173 % of control
inactive: dose: 25.0 mg/kg/injection, schedule: Q01DX010 (ip), vehicle: saline 108 % of control | dose: 50.0 mg/kg/injection, schedule: Q01DX010 (ip), vehicle: other 123 % of control | dose: 50.0 mg/kg/injection, schedule: Q01DX010 (ip), vehicle: saline 91 % of control | dose: 50.0 mg/kg/injection, schedule: Q01DX010 (ip), vehicle: water 100 % of control | dose: 100.0 mg/kg/injection, schedule: Q01DX010 (ip), vehicle: saline 86 % of control and 100 % of control | dose: 100.0 mg/kg/injection, schedule: Q01DX010 (ip), vehicle: water 111 % of control | dose: 200.0 mg/kg/injection, schedule: Q01DX010 (ip), vehicle: saline 90 % of control

c1ccc(COCC[P+](c2ccccc2)(c2ccccc2)c2ccccc2)cc1
inactive: dose: 2.5 mg/kg/injection, schedule: Q01DX010 (ip), vehicle: saline 90 % of control | dose: 5.0 mg/kg/injection, schedule: Q01DX010 (ip), vehicle: saline 100 % of control | dose: 10.0 mg/kg/injection, schedule: Q01DX010 (ip), vehicle: saline 113 % of control

CN=C(N)c1ccc(N=C(N)c2ccc(N=C(N)c3ccc(N=C(O)c4cccc(C(O)=Nc5ccc(C(N)=Nc6ccc(C(N)=Nc7ccc(C(N)=NC)cc7)cc6)cc5)c4)cc3)cc2)cc1
active: dose: 4.0 mg/kg/injection, schedule: Q01DX009 (ip), vehicle: saline with Tween-80 154 % of control | dose: 6.0 mg/kg/injection, schedule: Q04DX003 (ip), vehicle: saline with Tween-80 150 % of control | dose: 8.0 mg/kg/injection, schedule: Q01DX009 (ip), vehicle: saline with Tween-80 177 % of control | dose: 9.0 mg/kg/injection, schedule: Q04DX003 (ip), vehicle: saline with Tween-80 168 % of control | dose: 11.0 mg/kg/injection, schedule: Q01DX009 (ip), vehicle: saline with Tween-80 200 % of control | dose: 12.0 mg/kg/injection, schedule: Q01DX009 (ip), vehicle: saline with Tween-80 166 % of control | dose: 14.0 mg/kg/injection, schedule: Q04DX003 (ip), vehicle: saline with Tween-80 168 % of control | dose: 16.0 mg/kg/injection, schedule: Q01DX009 (ip), vehicle: saline with Tween-80 181 % of control and 183 % of control | dose: 16.5 mg/kg/injection, schedule: Q01DX009 (ip), vehicle: saline with Tween-80 227 % of control | dose: 22.0 mg/kg/injection, schedule: Q04DX003 (ip), vehicle: saline with Tween-80 159 % of control and 177 % of control and 204 % of control | dose: 33.0 mg/kg/injection, schedule: Q04DX003 (ip), vehicle: saline with Tween-80 250 % of control and 177 % of control | dose: 37.5 mg/kg/injection, schedule: Q01DX009 (ip), vehicle: saline with Tween-80 233 % of control and 194 % of control | dose: 50.0 mg/kg/injection, schedule: Q04DX003 (ip), vehicle: saline with Tween-80 250 % of control and 190 % of control | dose: 75.0 mg/kg/injection, schedule: Q04DX003 (ip), vehicle: saline with Tween-80 231 % of control and 200 % of control
inactive: dose: 4.0 mg/kg/injection, schedule: Q04DX003 (ip), vehicle: saline with Tween-80 123 % of control

CCCCCCCCS.[Ni]
inactive: dose: 100.0 mg/kg/injection, schedule: Q01DX001 (ip), vehicle: Klucel (hydroxypropylcellulose) (HPC) 100 % of control | [1] 113 % of control | dose: 200.0 mg/kg/injection, schedule: Q01DX001 (ip), vehicle: Klucel (hydroxypropylcellulose) (HPC) 100 % of control

FC(F)(F)C(Cl)(Cc1ccc2ccccc2n1)C(F)(F)F
inactive: dose: 100.0 mg/kg/injection, schedule: Q01DX001 (ip), vehicle: saline with Tween-80 100 % of control | dose: 200.0 mg/kg/injection, schedule: Q01DX001 (ip), vehicle: saline with Tween-80 100 % of control | dose: 400.0 mg/kg/injection, schedule: Q01DX001 (ip), vehicle: saline with Tween-80 104 % of control

CCN1c2ccccc2CC(CCN(C(C)C)C(C)C)(C(N)=O)c2ccccc21 (configuration not stated)
inactive: dose: 100.0 mg/kg/injection, schedule: Q04DX002 (ip), vehicle: saline with Tween-80 108 % of control

Oc1ccc(C2N(c3ccccc3)CCN2c2ccccc2)cc1
inactive: [2] 110 % of control | [3] 86 % of control

C#CCOC(=O)NCCC
inactive: [4] 110 % of control | [5] 95 % of control | [6] 105 % of control | [1] 104 % of control | [7] 115 % of control | [8] 104 % of control

Nc1nc(SCc2ccccc2)c2[nH]cnc2n1
inactive: dose: 8.0 mg/kg/injection, schedule: Q01DX010 (ip), vehicle: saline 90 % of control and 100 % of control | dose: 16.0 mg/kg/injection, schedule: Q01DX010 (ip), vehicle: saline 90 % of control and 105 % of control | dose: 32.0 mg/kg/injection, schedule: Q01DX010 (ip), vehicle: saline 90 % of control and 110 % of control | dose: 64.0 mg/kg/injection, schedule: Q01DX010 (ip), vehicle: saline 104 % of control and 120 % of control

COc1ccc(C[C@H](N)C(=O)NC2C(CO)OC(n3cnc4c(N(C)C)ncnc43)C2O)cc1 (some centres not stated)
inactive: dose: 25.0 mg/kg/injection, schedule: Q04DX003 (ip), vehicle: saline 98 % of control | [9] 109 % of control | [10] 100 % of control | [11] 105 % of control

C1CN2CCN1CC2.[Cl][Ni+][Cl]
inactive: dose: 0.78 mg/kg/injection, schedule: Q01DX009 (ip), vehicle: saline 103 % of control | dose: 1.56 mg/kg/injection, schedule: Q01DX009 (ip), vehicle: saline 92 % of control and 99 % of control | dose: 3.12 mg/kg/injection, schedule: Q01DX009 (ip), vehicle: saline 99 % of control and 103 % of control | dose: 6.25 mg/kg/injection, schedule: Q01DX009 (ip), vehicle: saline 100 % of control and 101 % of control

Oc1ccc(O)cc1
inactive: dose: 25.0 mg/kg/injection, schedule: Q04DX003 (ip), vehicle: Klucel (hydroxypropylcellulose) (HPC) 106 % of control | [12] 112 % of control | [5] 110 % of control | dose: 66.0 mg/kg/injection, schedule: Q01DX009 (ip), vehicle: saline 100 % of control | [1] 112 % of control

CN(C)C
inactive: [9] 100 % of control | [11] 100 % of control | [13] 109 % of control

CNC(=S)NNc1ccccc1
inactive: [4] 96 % of control | [6] 91 % of control | [1] 90 % of control | [7] 95 % of control | [8] 95 % of control | dose: 400.0 mg/kg/injection, schedule: Q01DX009 (ip), vehicle: Klucel (hydroxypropylcellulose) (HPC) 95 % of control | dose: 400.0 mg/kg/injection, schedule: Q04DX003 (ip), vehicle: Klucel (hydroxypropylcellulose) (HPC) 100 % of control

CC(O)C(C)(O)C(=O)O (configuration not stated)
inactive: [12] 103 % of control | [10] 117 % of control | [11] 101 % of control | dose: 200.0 mg/kg/injection, schedule: Q01DX009 (ip), vehicle: saline 91 % of control | [13] 95 % of control | dose: 300.0 mg/kg/injection, schedule: Q01DX009 (ip), vehicle: saline 99 % of control

C=CC12COC(=O)C(=C)C1C(O)C1C(=C)C(=O)OC1C2 (configuration not stated)
inactive: dose: 3.75 mg/kg/injection, schedule: Q01DX009 (ip), vehicle: saline + alcohol 113 % of control | dose: 15.0 mg/kg/injection, schedule: Q01DX009 (ip), vehicle: saline + alcohol 90 % of control

CC(C)=CCNc1ncnc2nc[nH]c12
inactive: dose: 10.0 mg/kg/injection, schedule: Q01DX009 (ip), vehicle: saline with Tween-80 104 % of control | dose: 20.0 mg/kg/injection, schedule: Q01DX009 (ip), vehicle: saline with Tween-80 104 % of control | dose: 20.0 mg/kg/injection, schedule: Q04DX003 (ip), vehicle: saline with Tween-80 95 % of control | dose: 40.0 mg/kg/injection, schedule: Q04DX003 (ip), vehicle: saline with Tween-80 95 % of control | dose: 80.0 mg/kg/injection, schedule: Q04DX003 (ip), vehicle: saline with Tween-80 100 % of control

CCc1ccc(NC(=O)c2ccccc2Cl)cc1
inactive: [2] 100 % of control | [3] 91 % of control | dose: 400.0 mg/kg/injection, schedule: Q04DX003 (ip), vehicle: saline with Tween-80 91 % of control
